For series [1], the target named is T1, Recombinant human Factor B catalytic domain (Homo sapiens (Human), UniProt P00751). Description: biochemical.
For series [2], the target named is T1, Recombinant human Factor B catalytic domain. Description: Factor B binding assay by TR-FRET. Conditions: 10 nM his-tagged Factor B catalytic domain, 100 nM tracer, 1 h. In general terms: TR-FRET usually uses a lanthanide donor and a delayed reading to cut background.
The target is the same in series [3]. As to the kind of experiment: Target residence time of Factor B inhibitors by surface plasmon resonance (SPR). Conditions: for Residence time: 1/koff; for t1/2: binding half-life ln2/koff. For orientation: In SPR one partner is held on a chip, and binding of the other changes the refractive index at the surface.
The nature of series [4]: Ocular pharmacokinetic studies in rats. Conditions: 2 mpk PO. Format: in vivo, brown Norway rats. On the procedure: Three-month-old brown Norway rats were administered the Example compound via oral gavage as a suspension in 2 equiv 1 N HCl+30% PEG300+50% (20% Cremophor EL in water). Ocular tissues from both eyes and plasma were collected from rats per time point at 0.25, 0.5, 1, 6, and 24 h after administration. The ocular tissues collected were the retina and the posterior eye cup (RPE/choroid and posterior sclera). The tissues were diluted with phosphate buffered saline containing 10% acetonitrile and homogenized, centrifuged prior to analyses. The concentrations of the test article were measured in plasma and supernatants of ocular homogenates by HPLC-MS/MS in four individual retinas, four individual posterior eye cups, and two individual plasma samples at each time point. Chromatographic separation was carried out on Waters BEH C18 Column (2.1×50 mm, 1.7 μm) column (MAC-MOD Analytical, Chadds Ford, PA), using a gradient elution method with water and acetonitrile, both containing 0.025% formic acid—1 mM NH4OAc. Mass spectrometric measurements in positive electrospray ionization were directed at quantifying the mass transition with [M+H]^+ as the precursor ion on API6500, triple quadruple mass spectrometer (Sciex, Framingham, MA). The relevant pharmacokinetic parameters were estimated using noncompartmental methods using WinNonlin (Enterprise, version 8.2).

Series [5] has as its system AP complement activation. As to the kind of experiment: In vivo assessment of mouse AP complement functional activity (LPS-induced plasma C3b/iC3b/C3c ELISA). Also on record: species or system C57BL/6 mice. Particulars: at 20 h, 20 mg/kg oral. On the procedure:
Female C57BL/6 mice were administered with Example 57 formulation (20 mg/kg in 0.5% (w/v) methyl cellulose, 0.5% (v/v) Tween 80) by oral gavage 20 h before the end of study. To activate complement pathway, lipopolysaccharide (LPS) from Salmonella typhimurium (Sigma) was injected i.p. (2.5 mg/kg) 7.5 h prior to the end of the study. Control mice were given i.p. injection of saline solution and dosed with vehicle by oral gavage. Plasma samples were collected from mice at the end of the study. AP complement activation was assessed by measuring plasma C3 cleavage products C3b/iC3b/C3c with ELISA using rat anti-mouse C3b/iC3b/C3c monoclonal antibody (clone 2/11, Hycult biotech, 0.1ug/well) and goat anti-Rat IgG (whole molecule)-Peroxidase (Sigma) diluted in TBST (TBS/0.05% Tween20).

For series [6], the system named is alternative complement pathway (AP). Description: Ex vivo assessment of plasma PD inhibition (AP MAC deposition ELISA in rat serum). The arrangement: species or system Sprague Dawley rats. Particulars: 2 mg/kg oral. On the technique in general: An ELISA detects its analyte on a solid surface through an enzyme-linked reagent.

The results in this text go back to patent US20250243186A1, “PIPERIDINYL INDOLE DERIVATIVES, PREPARATION METHODS AND MEDICINAL USES THEREOF” (HANSOH BIO LLC, priority 2021, published 2025).

Read-outs that look alike come from different tables or passages of the source. A value given as a limit tells only on which side of the number the result lay.

Broadly, the Kd is the constant that tells how readily two partners part at equilibrium. The IC50 is the midpoint of a concentration-inhibition curve. The term inhibition denotes the drop in the measured response relative to a control, in per cent.

T1 sequence (P00751 470-764): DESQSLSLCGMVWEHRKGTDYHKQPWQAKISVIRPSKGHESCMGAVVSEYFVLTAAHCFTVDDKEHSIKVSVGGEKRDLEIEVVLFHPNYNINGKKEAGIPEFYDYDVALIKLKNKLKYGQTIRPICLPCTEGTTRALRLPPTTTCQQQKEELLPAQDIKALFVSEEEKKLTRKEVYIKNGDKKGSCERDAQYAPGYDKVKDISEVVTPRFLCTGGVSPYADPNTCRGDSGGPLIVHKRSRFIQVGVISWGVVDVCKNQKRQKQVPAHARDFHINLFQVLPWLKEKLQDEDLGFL

On to `COc1cc(C)c2[nH]ccc2c1CN1CC2CC3(CC3)CC2C1c1ccc(C(=O)O)cc1` (single isomer, unassigned) [29 (Isomer 1), 4-(2-((5-methoxy-7-methyl-1H-indol-4-yl)methyl)hexahydro-1H-spiro[cyclopenta[c]pyrrole-5,1′-cyclopropan]-1-yl)benzoic acid], for which the Kd in series [1] turned out to be 7.03 nM. In addition, in series [2] (Factor B TR-FRET IC50 (nM)), the IC50 was 7.5 nM. In addition, in series [3], the “Residence time” value is recorded as 236.4 s and the “t1/2” value is 2.72 min.
For the molecule `COc1cc(C)c2[nH]ccc2c1CN1CCC2(C[C@H]1c1ccc(C(=O)O)cc1C)CC(F)(F)C2` [Example 57], the “T½” value in series [4] came to 1330 min. Also, the “Plasma AUC0-last (nM · h)” value in series [4] (plasma) was 12,668 nM · h. Besides, in series [4] (retina), the “Retina AUC0-last” value is 0.7964 µM·h. Besides, the “inhibition in mouse in-vivo PD assay” value in series [5] is listed as “sustained inhibition”. The “inhibition in rat ex-vivo PD assay” value in series [6] (at 24 h) is “sustained inhibition”. Also, the IC50 in series [2] (read-out: Factor B TR-FRET IC50) is less than 2 nM. For the same molecule, the “t1/2” value in series [3] was 71.28 min.
On to `COc1cc(C)c2[nH]ccc2c1CN1CCC2(CC1c1ccc(C(=O)O)cc1)CC2F` (single isomer, unassigned) [27 (Isomer 2), 4-(1-fluoro-6-((5-methoxy-7-methyl-1H-indol-4-yl)methyl)-6-azaspiro[2.5]octan-5-yl)benzoic acid], for which the Kd in series [1] is 4.25 nM. In addition, in series [2] (Factor B TR-FRET IC50 (nM)), the IC50 is 5.3 nM. In addition, in series [3], the “Residence time” value is 308.9 s and the “t1/2” value came out at 3.55 min.
`CCO[C@H]1CCN(Cc2c(OC)cc(C)c3[nH]ccc23)[C@H](c2ccc(C(=O)O)cc2)C1` [Iptacopan, reference compound]: the inhibition at 2 mg/kg in series [6] (Rattus norvegicus, rats, 24 h post dose, 50% serum, read-out: Serum PD inhibition (%) at 24 h (2 mpk)) is -3%.
As to `COc1cc(C)c2[nH]ccc2c1CN1CCC2(CC1c1ccc(C(=O)O)cc1)CC2(F)F` (single isomer, unassigned) [8 (Isomer 1), 4-(1,1-difluoro-6-((5-methoxy-7-methyl-1H-indol-4-yl)methyl)-6-azaspiro[2.5]octan-5-yl)benzoic acid], the AUC(0-t) in series [4] (Brown Norway, rat, 2 mg/kg, plasma, read-out: Plasma AUC0-last) was 10.8 µM·h; in series [4] (Brown Norway, rat, 2 mg/kg, retina, read-out: Retina AUC0-last) it was 2.23 µM·h. Further, the half-life in series [4] (Brown Norway, rat, in vivo, 2 mg/kg, read-out: T½ (converted)) is 384 min. In series [2] (Factor B TR-FRET IC50 (nM)), the IC50 worked out at 7 nM.
`COc1cc(C)c2[nH]ccc2c1CN1CCC2(CC1c1ccc(C(=O)O)cc1)CC2F` (single isomer, unassigned) [27 (Isomer 1), 4-(1-fluoro-6-((5-methoxy-7-methyl-1H-indol-4-yl)methyl)-6-azaspiro[2.5]octan-5-yl)benzoic acid]: the equilibrium dissociation constant (Kd) in series [1] was 6.25 nM. The IC50 in series [2] (Factor B TR-FRET IC50 (nM)) was 5 nM. In series [3], the “Residence time” value is reported as 191.4 s and the “t1/2” value stood at 2.2 min.
For `COc1cc(C)c2[nH]ccc2c1CN1CCC2(C[C@H]1c1ccc(-c3noc(=O)[nH]3)cc1)CC(F)(F)C2` (single isomer, unassigned) [47 (Isomer 1)] the same measures were 0.53 nM, less than 2 nM, 4130 s and 47.7 min.
